Data on one molecule can be found in BindingDB's records for patent US20240076297 (Merck Sharp & Dohme, 2024).

Structures are written as SMILES.

The target of one experiment is T1, Adenosine receptor A2b (Homo sapiens, UniProt P29275).
T1 sequence (P29275 whole entry): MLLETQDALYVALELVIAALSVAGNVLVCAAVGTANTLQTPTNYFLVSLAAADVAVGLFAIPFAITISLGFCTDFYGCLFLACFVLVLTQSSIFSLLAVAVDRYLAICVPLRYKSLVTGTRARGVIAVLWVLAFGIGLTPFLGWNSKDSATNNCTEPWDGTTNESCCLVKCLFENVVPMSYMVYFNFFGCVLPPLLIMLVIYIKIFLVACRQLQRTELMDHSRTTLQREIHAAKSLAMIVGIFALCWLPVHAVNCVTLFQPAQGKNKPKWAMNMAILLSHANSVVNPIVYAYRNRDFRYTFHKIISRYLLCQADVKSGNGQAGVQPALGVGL
Description: Measurement of A2A or A2B Binding Affinity Using Radioligand Binding. The procedure:
(§1) Method (A): 148 μL (5 μg/mL) membranes (Perkin Elmer, Cat. No. RBHA2aM400UA) and 2 μL compounds of the invention to be tested (test compound) were transferred to individual wells of a 96-well polypropylene assay plate and incubated for 15 to 30 min at room temperature. [3H] SCH58261 ((7-(2-phenylethyl)-5-amino-2-(2-furyl)-pyrazolo-[4,3-e]-1,2,4-triazolo[1,5-c]pyrimidine)) was diluted in assay buffer (50 mM Tris pH 7.4, 10 mM MgCl2, 0.005% Tween20) to a concentration of 4 nM and 50 μL transferred to each well of the assay plate. To define total and non-specific binding, wells containing 1% DMSO and 1 μM ZM241385 (Tocris Bioscience, Cat. No. 1036) respectively, were also included. The assay plate was incubated at room temperature for 60 min with agitation. […] The plate was incubated for at least 20 min, and then the amount of radioactivity remaining in each well was determined using a TopCount (Perkin Elmer) scintillation counter. After normalization to total and non-specific binding, the percent effect at each compound concentration was calculated. The plot of percent effect versus the log of compound concentration was analyzed electronically using a 4-parameter logistic fit based on the Levenberg-Marquardt algorithm to generate IC50 values.

The target of the next experiment is Adenosine receptor A2a (Homo sapiens, UniProt P29274). Described as above. On the procedure: as §1
Adenosine receptor A2a, sequence (P29274 whole entry): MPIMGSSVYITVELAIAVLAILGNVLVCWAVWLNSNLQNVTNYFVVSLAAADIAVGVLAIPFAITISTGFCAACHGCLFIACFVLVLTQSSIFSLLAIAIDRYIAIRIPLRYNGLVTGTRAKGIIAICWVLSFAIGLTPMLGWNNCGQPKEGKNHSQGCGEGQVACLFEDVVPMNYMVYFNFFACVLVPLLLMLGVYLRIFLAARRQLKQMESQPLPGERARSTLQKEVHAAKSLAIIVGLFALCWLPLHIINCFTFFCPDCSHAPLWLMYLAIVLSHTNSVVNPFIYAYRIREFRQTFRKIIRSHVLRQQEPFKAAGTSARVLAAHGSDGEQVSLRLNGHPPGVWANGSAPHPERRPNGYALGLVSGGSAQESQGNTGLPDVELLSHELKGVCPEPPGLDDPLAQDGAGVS

Turning to `COc1cccc2c1nc(N)n1nc(CCS(=O)(=O)C(F)(F)F)nc21` [US20240076297, Example 13.5], the results for the 50% inhibitory concentration (IC50) at Adenosine receptor A2b and at Adenosine receptor A2a were 81.3 nM and 10.9 nM, respectively.

As a reminder, the IC50 is the midpoint of a concentration-inhibition curve. Low values mean inhibition by little substance, high ones a need for much substance.
